Experimental data reported in patent US10660877B2 (BRISTOL-MYERS SQUIBB COMPANY, priority 2016, dated 2020).
One block for each molecule: values may come before it.

How the values were obtained:
human TLR8 = human TLR8 (Homo sapiens (Human), UniProt Q9NR97); experiment: TLR8 inhibition reporter assay (HEK-Blue cells, SEAP reporter, R848 stimulation); conditions: read-out: TLR8 IC50, HEK-Blue cells overexpressing human TLR8, R848 15.9 μM;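 further: compounds tested from 0.05 nM to 50 µM, 22 h at 37 °C, SEAP measured with HEK-Blue Detection, inhibition relative to agonist plus DMSO versus a known inhibitor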
human TLR7 = human TLR7 (Homo sapiens (Human), UniProt Q9NYK1); experiment: TLR7 inhibition reporter assay (HEK-Blue cells, SEAP reporter, gardiquimod stimulation); type: cell-based; conditions: HEK-Blue cells overexpressing human TLR7, gardiquimod 7.5 μM
TLR7 = experiment: In vivo mouse TLR7 PD model (gardiquimod challenge, plasma IL-6); parameters: species or system C57BL/6 mice; conditions: oral
Experimental: In Vivo Mouse TLR7 and TLR9 PD Model:
(§1) Adult male C57BL/6 mice were used for the experiments. Mice (7 to 10 per group) were randomized into different treatment groups based on body weight. Mice from the respective treatment groups were administered orally with vehicle or test compound. Thirty min after the oral administration of vehicle or test compound, mice were challenged with intraperitoneal injection of gardiquimod for TLR7 PD model and CpG-ODN for TLR9 PD model. Ninety minutes after gardiquimod injection and 120 minutes after CpG-ODN injection, mice were bled under isoflurane anaesthesia and plasma IL-6 level was estimated by using commercially available ELISA kit (BD Biosciences). At the end of experiment, mean cytokine data was plotted and one way ANOVA with Dunnett's test was performed to calculate the significance of test compound treated group vs. vehicle control group. Percent inhibition of cytokine induction was calculated for test compound treated group vs vehicle control group.

MRL/lpr mice = experiment: MRL/lpr model of systemic lupus erythematosus (proteinuria, urinary NGAL, anti-dsDNA Ab titer, lymphadenopathy); type: in vivo, mouse; conditions: oral once daily
Experimental: MRL/lpr Model of Systemic Lupus Erythematosus (SLE) Male MRL/lpr mice of 12-14 weeks age were screened and randomized based on the titers of anti-dsDNA antibodies and urinary NGAL (Neutrophil Gelatinase Associated Lipocalin). Mice were treated orally, once daily for 8 weeks with vehicle or test compound. The effect of test compound on disease severity was assessed by measuring end points including proteinuria, urinary-NGAL, anti-dsDNA Ab titer, and lymphadenopathy. These end points were assessed before the start of treatment and after 4 and 8 weeks of treatment. At the end of experiment, all mice were euthanized by CO2 asphyxiation and kidney samples were subjected for histology. At the end of experiment, one way ANOVA with Dunnett's test was performed to calculate the significance of test compound treated group vs. vehicle control group. Percent reduction in disease severity was calculated for each parameter, for test compound treated group vs vehicle control group.

TLR9 = experiment: In vivo mouse TLR9 PD model (CpG-ODN challenge, plasma IL-6); parameters: species or system C57BL/6 mice; conditions: oral
Experimental: as §1, with “In Vivo Mouse TLR7 and TLR9 PD Model: Adult” for “Adult”

human TLR9 = human TLR9 (Homo sapiens (Human), UniProt Q9NR96); experiment: TLR9 inhibition reporter assay (HEK-Blue cells, SEAP reporter, ODN2006 stimulation); conditions: read-out: TLR9 IC50, HEK-Blue cells overexpressing human TLR9, ODN2006 5 nM;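 further: compounds tested over 0.05 nM to 50 µM, 22 h incubation, inhibition taken as SEAP signal drop from agonist plus DMSO wells toward a known inhibitor control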
Sequence of human TLR9 (Q9NR96 26-1032): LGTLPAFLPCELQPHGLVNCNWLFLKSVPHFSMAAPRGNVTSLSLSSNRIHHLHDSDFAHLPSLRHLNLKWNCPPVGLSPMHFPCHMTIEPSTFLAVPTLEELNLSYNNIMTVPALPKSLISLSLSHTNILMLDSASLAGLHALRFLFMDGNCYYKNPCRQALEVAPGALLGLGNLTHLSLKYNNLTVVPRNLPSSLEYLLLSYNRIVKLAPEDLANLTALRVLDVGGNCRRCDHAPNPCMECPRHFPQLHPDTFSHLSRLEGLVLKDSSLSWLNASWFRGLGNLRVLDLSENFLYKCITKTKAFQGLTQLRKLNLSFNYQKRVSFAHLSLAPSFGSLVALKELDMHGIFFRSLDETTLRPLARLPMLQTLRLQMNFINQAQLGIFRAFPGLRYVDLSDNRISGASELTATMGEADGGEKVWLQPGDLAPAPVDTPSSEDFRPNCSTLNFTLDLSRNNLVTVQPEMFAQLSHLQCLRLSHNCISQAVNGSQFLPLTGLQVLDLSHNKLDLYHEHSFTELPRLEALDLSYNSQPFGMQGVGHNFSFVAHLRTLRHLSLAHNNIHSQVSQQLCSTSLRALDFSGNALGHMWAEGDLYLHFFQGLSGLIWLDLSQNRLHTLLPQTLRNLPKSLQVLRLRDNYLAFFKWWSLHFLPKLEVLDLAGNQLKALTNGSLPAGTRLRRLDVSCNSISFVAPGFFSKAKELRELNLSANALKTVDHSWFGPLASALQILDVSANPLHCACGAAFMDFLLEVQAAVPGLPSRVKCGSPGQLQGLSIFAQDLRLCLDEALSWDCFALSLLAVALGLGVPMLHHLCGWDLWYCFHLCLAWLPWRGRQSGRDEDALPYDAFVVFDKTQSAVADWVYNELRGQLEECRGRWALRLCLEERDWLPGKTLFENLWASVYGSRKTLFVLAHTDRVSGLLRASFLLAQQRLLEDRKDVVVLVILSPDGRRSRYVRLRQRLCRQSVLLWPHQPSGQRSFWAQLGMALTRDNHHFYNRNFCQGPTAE
Experimental: TLR7/8/9 Inhibition Reporter Assays
Briefly, cells are seeded into Greiner 384 well plates (15000 cells per well for TLR7, 20,000 for TLR8 and 25,000 for TLR9) and then treated with test compounds in DMSO to yield a final dose response concentration range of 0.05 nM-50 μM. […] After a 22 hour incubation at 37° C., 5% CO2, SEAP levels are determined with the addition of HEK-Blue™ Detection reagent (Invivogen), a cell culture medium that allows for detection of SEAP, according to manufacturer's specifications. The percent inhibition is determined as the % reduction in the HEK-Blue signal present in wells treated with agonist plus DMSO alone compared to wells treated with a known inhibitor.

Sequence of human TLR7 (Q9NYK1 27-1049): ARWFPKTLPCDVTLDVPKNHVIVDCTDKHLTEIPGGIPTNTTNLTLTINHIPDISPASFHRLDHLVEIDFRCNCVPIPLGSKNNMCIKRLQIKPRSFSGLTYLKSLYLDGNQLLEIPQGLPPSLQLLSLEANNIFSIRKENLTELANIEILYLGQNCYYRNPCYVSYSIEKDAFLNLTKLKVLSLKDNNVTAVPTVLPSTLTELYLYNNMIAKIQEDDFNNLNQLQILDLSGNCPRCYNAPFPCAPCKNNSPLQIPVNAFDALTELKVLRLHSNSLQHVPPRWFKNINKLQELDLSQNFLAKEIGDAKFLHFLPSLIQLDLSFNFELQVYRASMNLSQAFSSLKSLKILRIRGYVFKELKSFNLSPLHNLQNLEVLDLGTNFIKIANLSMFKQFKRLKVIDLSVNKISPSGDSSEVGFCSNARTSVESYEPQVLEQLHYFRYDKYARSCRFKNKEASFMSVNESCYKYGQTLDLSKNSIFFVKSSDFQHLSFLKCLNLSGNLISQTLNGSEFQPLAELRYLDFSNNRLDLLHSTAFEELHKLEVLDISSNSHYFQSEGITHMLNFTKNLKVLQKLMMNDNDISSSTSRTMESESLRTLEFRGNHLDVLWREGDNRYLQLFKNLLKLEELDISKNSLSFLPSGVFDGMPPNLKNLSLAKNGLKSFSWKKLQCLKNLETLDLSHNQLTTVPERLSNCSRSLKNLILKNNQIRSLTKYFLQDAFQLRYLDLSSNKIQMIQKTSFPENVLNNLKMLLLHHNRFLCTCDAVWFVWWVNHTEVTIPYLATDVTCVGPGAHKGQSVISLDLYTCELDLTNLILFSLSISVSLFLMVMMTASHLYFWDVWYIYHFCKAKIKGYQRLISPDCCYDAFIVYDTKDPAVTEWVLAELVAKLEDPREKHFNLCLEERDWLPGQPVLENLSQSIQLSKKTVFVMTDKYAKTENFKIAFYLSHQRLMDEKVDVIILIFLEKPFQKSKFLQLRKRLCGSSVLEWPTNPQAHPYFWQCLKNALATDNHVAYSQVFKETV
Sequence of human TLR8 (Q9NR97 27-1041): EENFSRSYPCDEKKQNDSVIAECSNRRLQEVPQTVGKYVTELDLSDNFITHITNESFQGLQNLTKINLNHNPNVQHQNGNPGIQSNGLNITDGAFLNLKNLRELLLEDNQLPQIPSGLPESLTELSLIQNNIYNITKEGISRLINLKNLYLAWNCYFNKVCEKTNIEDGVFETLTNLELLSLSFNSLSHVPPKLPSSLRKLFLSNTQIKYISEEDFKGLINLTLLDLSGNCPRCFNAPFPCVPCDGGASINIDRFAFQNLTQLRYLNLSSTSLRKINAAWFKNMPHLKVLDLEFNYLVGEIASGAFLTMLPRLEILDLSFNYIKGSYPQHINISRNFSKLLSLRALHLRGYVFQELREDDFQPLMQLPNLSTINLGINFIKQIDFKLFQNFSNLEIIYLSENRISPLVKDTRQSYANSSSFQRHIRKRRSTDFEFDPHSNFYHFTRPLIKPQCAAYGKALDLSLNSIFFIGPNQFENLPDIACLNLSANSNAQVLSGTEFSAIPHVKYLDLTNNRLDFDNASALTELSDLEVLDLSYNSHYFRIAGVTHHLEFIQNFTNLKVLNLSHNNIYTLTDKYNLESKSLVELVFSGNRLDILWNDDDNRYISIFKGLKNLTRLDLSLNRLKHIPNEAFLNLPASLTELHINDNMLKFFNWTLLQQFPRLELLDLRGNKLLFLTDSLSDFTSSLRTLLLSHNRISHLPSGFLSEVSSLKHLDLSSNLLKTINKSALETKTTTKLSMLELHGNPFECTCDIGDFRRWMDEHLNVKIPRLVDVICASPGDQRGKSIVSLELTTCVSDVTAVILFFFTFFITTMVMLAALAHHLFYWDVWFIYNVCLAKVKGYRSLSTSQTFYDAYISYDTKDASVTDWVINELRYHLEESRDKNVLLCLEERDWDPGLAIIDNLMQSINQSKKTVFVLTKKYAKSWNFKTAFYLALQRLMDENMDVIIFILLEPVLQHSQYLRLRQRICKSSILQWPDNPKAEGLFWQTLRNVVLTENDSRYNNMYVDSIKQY

IC50 (human TLR8): 3.2 nM | IC50 (human TLR7): 0.7 nM
SMILES: Cc1cc(-c2[nH]c3ccc(C4CCNCC4)cc3c2C(C)C)cc(C)n1.Cl [Example 1, 2-(2,6-dimethylpyridin-4-yl)-3-isopropyl-5-(piperidin-4-yl)-1H-indole hydrochloride]
% inhibition of IL6 (TLR7; 0.03 mg/kg): 28% | % inhibition of IL6 (TLR7; 0.05 mg/kg): 66% | % inhibition of IL6 (TLR7; 0.5 mg/kg): 98% | % inhibition Anti-dsDNA antibody titer (MRL/lpr mice; 0.1 mg/kg): 1% | % inhibition IL-10 (MRL/lpr mice; 0.1 mg/kg): 24% | % inhibition IL-12p40 (MRL/lpr mice; 0.1 mg/kg): 12% | % inhibition Lymphadenopathy (MRL/lpr mice; 0.1 mg/kg): 3% | % inhibition Proteinuria (MRL/lpr mice; 0.1 mg/kg): 69% | % inhibition Urinary NGAL (MRL/lpr mice; 0.1 mg/kg): 52% | % inhibition Anti-dsDNA antibody titer (MRL/lpr mice; 1 mg/kg): 14% | % inhibition IL-10 (MRL/lpr mice; 1 mg/kg): 32% | % inhibition IL-12p40 (MRL/lpr mice; 1 mg/kg): 26% | % inhibition Lymphadenopathy (MRL/lpr mice; 1 mg/kg): 31% | % inhibition Proteinuria (MRL/lpr mice; 1 mg/kg): 92% | % inhibition Urinary NGAL (MRL/lpr mice; 1 mg/kg): 69% | % inhibition Anti-dsDNA antibody titer (MRL/lpr mice; 5 mg/kg): 20% | % inhibition IL-10 (MRL/lpr mice; 5 mg/kg): 39% | % inhibition IL-12p40 (MRL/lpr mice; 5 mg/kg): 30% | % inhibition Lymphadenopathy (MRL/lpr mice; 5 mg/kg): 33% | % inhibition Proteinuria (MRL/lpr mice; 5 mg/kg): 92% | % inhibition Urinary NGAL (MRL/lpr mice; 5 mg/kg): 72% | % inhibition Anti-dsDNA antibody titer (MRL/lpr mice; 20 mg/kg): 53% | % inhibition IL-10 (MRL/lpr mice; 20 mg/kg): 53% | % inhibition IL-12p40 (MRL/lpr mice; 20 mg/kg): 35% | % inhibition Lymphadenopathy (MRL/lpr mice; 20 mg/kg): 53% | % inhibition Proteinuria (MRL/lpr mice; 20 mg/kg): 93% | % inhibition Urinary NGAL (MRL/lpr mice; 20 mg/kg): 81% | % inhibition of IL6 (TLR9; 1 mg/kg): 16% | % inhibition of IL6 (TLR9; 3 mg/kg): 29% | % inhibition of IL6 (TLR9; 10 mg/kg): 33% | % inhibition of IL6 (TLR9; 30 mg/kg): 38%

IC50 (human TLR8): 4.3 nM | IC50 (human TLR7): 1.5 nM | IC50 (human TLR9): 359 nM
SMILES: Cc1cc(-c2[nH]c3ccc(C4CCN(CC(=O)N(C)C)CC4)cc3c2C(C)C)cc(C)n1 [Example 308, 2-(4-(2-(2,6-dimethylpyridin-4-yl)-3-isopropyl-1H-indol-5-yl)piperidin-1-yl)-N,N-dimethylacetamide]
% inhibition of IL6 (TLR7; 0.002 mg/kg): 30% | % inhibition of IL6 (TLR7; 0.008 mg/kg): 47% | % inhibition of IL6 (TLR7; 0.032 mg/kg): 81% | % inhibition of IL6 (TLR7; 0.160 mg/kg): 98%

IC50 (human TLR8): 5.5 nM | IC50 (human TLR7): 2 nM | IC50 (human TLR9): 789 nM
SMILES: CNC(=O)CN1CCC(c2ccc3[nH]c(-c4cc(C)nc(C)c4)c(C(C)C)c3c2)CC1 [Example 309, 2-(4-(2-(2,6-dimethylpyridin-4-yl)-3-isopropyl-1H-indol-5-yl)piperidin-1-yl)-N-methylacetamide]
% inhibition of IL6 (TLR7; 0.0005 mg/kg): 12% | % inhibition of IL6 (TLR7; 0.005 mg/kg): 65% | % inhibition of IL6 (TLR7; 0.05 mg/kg): 89% | % inhibition of IL6 (TLR7; 0.25 mg/kg): 91%
